Experiments:
[1] = biological target: indoleamine 2, 3-dioxygenase (IDO1) (Homo sapiens, UniProt P14902); assay: IDO1 PBMC RapidFire MS assay (kynurenine detection by mass spectrometry); type: cell-based; design: to induce the expression of indoleamine 2, 3-dioxygenase (IDO1); host or cells: human PBMC stimulated with IFN-gamma and LPS; details: human PBMC stimulated with IFN-γ and LPS, 2 days, pIC50, read-out: PBMC PXC50 (converted)
Description: IDO1 PBMC RapidFire MS Assay
(§1) Compounds of the present invention were tested via high-throughput cellular assays utilizing detection of kynurenine via mass spectrometry and cytotoxicity as end-points. For the mass spectrometry and cytotoxicity assays, human peripheral blood mononuclear cells (PBMC) (PB003F; AllCells®, Alameda, Calif.) were stimulated with human interferon-γ (IFN-γ) (Sigma-Aldrich Corporation, St. Louis, Mo.) and lipopolysaccharide from Salmonella minnesota (LPS) (Invivogen, San Diego, Calif.) to induce the expression of indoleamine 2, 3-dioxygenase (IDO1). Compounds with IDO1 inhibitory properties decreased the amount of kynurenine produced by the cells via the tryptophan catabolic pathway. Cellular toxicity due to the effect of compound treatment was measured using CellTiter-Glo® reagent (CTG) (Promega Corporation, Madison, Wis.), which is based on luminescent detection of ATP, an indicator of metabolically active cells.
(§2) In preparation for the assays, test compounds were serially diluted 3-fold in DMSO from a typical top concentration of 1 mM or 5 mM and plated at 0.5 μL in 384-well, polystyrene, clear bottom, tissue culture treated plates with lids (Greiner Bio-One, Kremsmünster, Austria) to generate 11-point dose response curves. Low control wells (0% kynurenine or 100% cytotoxicity) contained either 0.5 μL of DMSO in the presence of unstimulated (−IFN-γ/−LPS) PBMCs for the mass spectrometry assay or 0.5 μL of DMSO in the absence of cells for the cytotoxicity assay, and high control wells (100% kynurenine or 0% cytotoxicity) contained 0.5 μL of DMSO in the presence of stimulated (+IFN-γ/+LPS) PBMCs for both the mass spectrometry and cytotoxicity assays.
(§3) Frozen stocks of PBMCs were washed and recovered in RPMI 1640 medium (Thermo Fisher Scientific, Inc., Waltham, Mass.) supplemented with 10% v/v heat-inactivated fetal bovine serum (FBS) (Thermo Fisher Scientific, Inc., Waltham, Mass.), and 1× penicillin-streptomycin antibiotic solution (Thermo Fisher Scientific, Inc., Waltham, Mass.). The cells were diluted to 1,000,000 cells/mL in the supplemented RPMI 1640 medium. 50 μL of either the cell suspension, for the mass spectrometry assay, or medium alone, for the cytotoxicity assay, were added to the low control wells, on the previously prepared 384-well compound plates, resulting in 50,000 cells/well or 0 cells/well respectively. IFN-γ and LPS were added to the remaining cell suspension at final concentrations of 100 ng/ml and 50 ng/ml respectively, and 50 μL of the stimulated cells were added to all remaining wells on the 384-well compound plates. The plates, with lids, were then placed in a 37° C., 5% CO2 humidified incubator for 2 days.
(§4) Following incubation, the 384-well plates were removed from the incubator and allowed to equilibrate to room temperature for 30 minutes. For the cytotoxicity assay, CellTiter-Glo® was prepared according to the manufacturer's instructions, and 40 μL were added to each plate well. After a twenty minute incubation at room temperature, luminescence was read on an EnVision® Multilabel Reader (PerkinElmer Inc., Waltham, Mass.). For the mass spectrometry assay, 10 μL of supernatant from each well of the compound-treated plates were added to 40 μL of acetonitrile, containing 10 μM of an internal standard for normalization, in 384-well, polypropylene, V-bottom plates (Greiner Bio-One, Kremsmünster, Austria) to extract the organic analytes. Following centrifugation at 2000 rpm for 10 minutes, 10 μL from each well of the acetonitrile extraction plates were added to 90 μL of sterile, distilled H2O in 384-well, polypropylene, V-bottom plates for analysis of kynurenine and the internal standard on the RapidFire 300 (Agilent Technologies, Santa Clara, Calif.) and 4000 QTRAP MS (SCIEX, Framingham, Mass.). MS data were integrated using Agilent Technologies' RapidFire Integrator software, and data were normalized for analysis as a ratio of kynurenine to the internal standard. […]

[2] = system: human peripheral blood mononuclear cells (PBMC); assay: PBMC cytotoxicity assay (CellTiter-Glo); type: cell-based; details: 2 days, pCC50
Description: as §1, §2, §3, §4

Chain of indoleamine 2, 3-dioxygenase (IDO1) (P14902 whole entry): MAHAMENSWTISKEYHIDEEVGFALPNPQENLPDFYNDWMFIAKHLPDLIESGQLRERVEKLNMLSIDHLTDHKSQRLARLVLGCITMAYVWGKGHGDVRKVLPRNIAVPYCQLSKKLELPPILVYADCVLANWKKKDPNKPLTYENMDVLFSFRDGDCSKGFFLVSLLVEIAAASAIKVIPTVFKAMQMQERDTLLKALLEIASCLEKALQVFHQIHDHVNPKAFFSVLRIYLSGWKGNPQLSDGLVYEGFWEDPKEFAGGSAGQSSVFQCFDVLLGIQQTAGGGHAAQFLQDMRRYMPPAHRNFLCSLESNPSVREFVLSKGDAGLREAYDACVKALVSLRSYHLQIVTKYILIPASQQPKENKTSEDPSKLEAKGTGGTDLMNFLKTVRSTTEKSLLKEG

Compound | IC50 [1] | PBMC TOX PXC50 [2]
CC(C)CN(c1ccc([C@H](C)CC(=O)O)cc1Nc1ccc(C(F)(F)F)cn1)C1CCOCC1 [Example 27, (R)-3-(4-(isobutyl(tetrahydro-2H-pyran-4-yl)amino)-3-((5-(trifluoromethyl)pyridin-2-yl)amino)phenyl)butanoic Acid] | 3.98 nM | <5
COC(=O)c1c[nH]c(Nc2cc([C@H](C)CC(=O)O)ccc2N(CC(C)C)C2CCOCC2)n1 [Example 29, (R)-3-(4-(isobutyl(tetrahydro-2H-pyran-4-yl)amino)-3-((4-(methoxycarbonyl)-1H-imidazol-2-yl)amino)phenyl)butanoic acid] | 6.31 nM | <5
CC(C)CN(c1ccc([C@H](C)CC(=O)O)cc1Nc1ccc(Cl)c(C#N)n1)C1CCOCC1 [Example 30, (R)-3-(3-((5-chloro-6-cyanopyridin-2-yl)amino)-4-(isobutyl(tetrahydro-2H-pyran-4-yl)amino)phenyl)butanoic Acid] | 7.94 nM | <5
CC(C)CN(c1ccc([C@H](C)CC(=O)O)cc1Nc1n[nH]c(C(F)(F)F)n1)C1CCOCC1 [Example 32, (R)-3-(4-(Isobutyl(tetrahydro-2H-pyran-4-yl)amino)-3-((5-(trifluoromethyl)-1H-1,2,4-triazol-3-yl)amino)phenyl)butanoic Acid] | 10 nM | <5
CC(C)CN(c1ccc([C@H](C)CC(=O)O)cc1Nc1ccc(Cl)c(Cl)n1)C1CCOCC1 [Example 33, (R)-3-(3-((5,6-Dichloropyridin-2-yl)amino)-4-(isobutyl(tetrahydro-2H-pyran-4-yl)amino)phenyl)butanoic Acid] | 6.31 nM | <5
CC(C)CN(c1ccc([C@H](C)CC(=O)O)cc1Nc1n[nH]c(Cl)n1)C1CCOCC1 [Example 34, (R)-3-(3-((5-Chloro-1H-1,2,4-triazol-3-yl)amino)-4-(isobutyl(tetrahydro-2H-pyran-4-yl)amino)phenyl)butanoic Acid] | 6.31 nM | <5
CC(C)CN(c1c(F)cc([C@H](C)CC(=O)O)cc1Nc1ccc(Cl)cn1)C1CCOCC1 [Example 35, (R)-3-(3-((5-chloropyridin-2-yl)amino)-5-fluoro-4-(isobutyl(tetrahydro-2H-pyran-4-yl)amino)phenyl)butanoic Acid] | 0.501 nM | <5
CC(C)CN(c1cc(F)c([C@H](C)CC(=O)O)cc1Nc1ccc(Cl)cn1)C1CCOCC1 [Example 36, (R)-3-(5-((5-chloropyridin-2-yl)amino)-2-fluoro-4-(isobutyl(tetrahydro-2H-pyran-4-yl)amino)phenyl)butanoic Acid] | 0.631 nM | <5
CC[C@H](CC(=O)O)c1ccc(N(CC(C)C)C2CCOCC2)c(Nc2n[nH]c(C3CC3)n2)c1 [Example 41, (R)-3-(3-((5-cyclopropyl-1H-1,2,4-triazol-3-yl)amino)-4-(isobutyl(tetrahydro-2H-pyran-4-yl)amino)phenyl)pentanoic Acid] | 7.94 nM | <5
CO[C@H]1CC[C@@H](N(CC(C)C)c2ccc([C@H](C)CC(=O)O)cc2Nc2nc(C(F)(F)F)ns2)CC1 [Example 43, (R)-3-(4-(isobutyl((1s,4S)-4-methoxycyclohexyl)amino)-3-((3-(trifluoromethyl)-1,2,4-thiadiazol-5-yl)amino)phenyl)butanoic Acid] | 0.631 nM | <5
COC(=O)c1c[nH]c(Nc2cc([C@H](C)CC(=O)O)ccc2N(CC(C)C)[C@H]2CC[C@@H](OC)CC2)n1 [Example 46, (R)-3-(4-(isobutyl((1s,4s)-4-methoxycyclohexyl)amino)-3-((4-(methoxycarbonyl)-1H-imidazol-2-yl)amino)phenyl)butanoic Acid] | 1.58 nM | 5.2
CO[C@H]1CC[C@H](N(CC(C)C)c2ccc([C@H](C)CC(=O)O)cc2Nc2nc(C(F)(F)F)ns2)CC1 [Example 50, (R)-3-(4-(isobutyl((1r,4R)-4-methoxycyclohexyl)amino)-3-((3-(trifluoromethyl)-1,2,4-thiadiazol-5-yl)amino)phenyl)butanoic Acid] | 1.58 nM | <5
CO[C@H]1CC[C@H](N(CC(C)C)c2ccc([C@H](C)CC(=O)O)cc2Nc2n[nH]c(C(F)(F)F)n2)CC1 [Example 52] | 10 nM | <5
CO[C@H]1CC[C@@H](N(CC(C)C)c2ccc([C@H](C)CC(=O)O)cc2Nc2nc(C(F)(F)F)c[nH]2)CC1 [Example 62, (R)-3-(4-(isobutyl((cis)-4-methoxycyclohexyl)amino)-3-((4-(trifluoromethyl)-1H-imidazol-2-yl)amino)phenyl)butanoic Acid] | 3.98 nM | <5

More lines, main results first:

IC50 [1] | Compound | PBMC TOX PXC50 [2]
0.794 nM | CO[C@H]1CC[C@@H](N(CC(C)C)c2ccc([C@H](C)CC(=O)O)cc2Nc2ccc(Cl)cn2)CC1 [Example 47, (R)-3-(3-((5-chloropyridin-2-yl)amino)-4-(isobutyl((1s,4S)-4-methoxycyclohexyl)amino)phenyl)butanoic Acid] | <5
1 nM | CO[C@H]1CC[C@@H](N(CC(C)C)c2ccc([C@H](C)CC(=O)O)cc2Nc2nc(Cl)ns2)CC1 [Example 48, (R)-3-(3-((3-chloro-1,2,4-thiadiazol-5-yl)amino)-4-(isobutyl((1s,4S)-4-methoxycyclohexyl)amino)phenyl)butanoic Acid] | <5
1.58 nM | CO[C@H]1CC[C@@H](N(CC(C)C)c2ccc([C@H](C)CC(=O)O)cc2Nc2ccc(C#N)cn2)CC1 [Example 53, (R)-3-(3-((5-cyanopyridin-2-yl)amino)-4-(isobutyl((1s,4S)-4-methoxycyclohexyl)amino)phenyl)butanoic Acid] | <5
2 nM | CO[C@H]1CC[C@H](N(CC(C)C)c2ccc([C@H](C)CC(=O)O)cc2Nc2nc(Cl)ns2)CC1 [Example 54, (R)-3-(3-((3-chloro-1,2,4-thiadiazol-5-yl)amino)-4-(isobutyl((1r,4R)-4-methoxycyclohexyl)amino)phenyl)butanoic Acid] | <5
3.16 nM | CO[C@H]1CC[C@H](N(CC(C)C)c2ccc([C@H](C)CC(=O)O)cc2Nc2ccc(Cl)cn2)CC1 [Example 55, (R)-3-(3-((5-chloropyridin-2-yl)amino)-4-(isobutyl((1r,4R)-4-methoxycyclohexyl)amino)phenyl)butanoic Acid] | <5
3.98 nM | CO[C@H]1CC[C@H](N(CC(C)C)c2ccc([C@H](C)CC(=O)O)cc2Nc2ccc(C#N)cn2)CC1 [Example 56, (R)-3-(3-((5-cyanopyridin-2-yl)amino)-4-(isobutyl((1r,4R)-4-methoxycyclohexyl)amino)phenyl)butanoic Acid] | <5
10 nM | COCc1ccc(Nc2cc([C@H](C)CC(=O)O)ccc2N(CC(C)C)[C@H]2CC[C@@H](OC)CC2)nc1 [Example 60, (R)-3-(4-(isobutyl((1s,4S)-4-methoxycyclohexyl)amino)-3-((5-(methoxymethyl)pyridin-2-yl)amino)phenyl)butanoic Acid] | <5
